Reference: patent US11186618B2, “Dendritic-cell-targeted peptide, fusion peptide utilizing said peptide, and vaccine utilizing said fusion peptide” (The Research Foundation for Microbial Diseases of Osaka …, priority 2016, dated 2021)
Entries after “also recorded” stand apart in the source; their conditions may differ.

Tests used:
Clec9a = settings: Non-Patent Document 1; cited from earlier work
[1] = tested on: bone marrow-derived dendritic cells (FL-DCs); assay: Binding of biotinylated peptide/streptavidin complex to dendritic cells, flow cytometry (Test Example 7); type: cell-based, mouse; settings: 0.6 μg complex, PE-labeled streptavidin, FL-DCs and spleen-derived dendritic cells
Procedure: A biotinylated peptide/streptavidin complex was produced in the same manner as in Test Example 4 above using each of the peptide consisting of the amino acid sequence of FL4 identified in Test Example 1 above and its scramble peptide (amino acid sequence: YRSIVKA; SEQ ID NO: 38).
Each of various test cells and 0.6 μg of each of various complexes were mixed, and then the binding of each of various complexes to cells was evaluated by flow cytometric analysis. Cells used were 1×10^5 FL-DCs, 1×10^6 CD11c positive cells purified from the spleen using MACS (the spleen-derived dendritic cells) and 1×10^6 murine splenocytes.

[2] = tested on: mouse-derived dendritic cells (FL-DCs); assay: Binding of phage clones to mouse-derived dendritic cells by flow cytometric analysis (Test Example 1); type: cell-based; settings: phage clone displaying the peptide, 1.6×10^10 pfu/mL, 1×10^5 mouse-derived dendritic cells, flow cytometry with antibody against the phage
Procedure: Meanwhile, in the following test examples, unless otherwise indicated, as mouse-derived dendritic cells, dendritic cells (FL-DCs) that were obtained by culturing murine bone marrow cells in the presence of Flt3-L (final concentration 100 ng/ml) for 1 week to induce differentiation were used. In addition, in the following test examples, FL-DCs were analyzed in some cases separately for Plasmacytoid DCs (pDCs), CD11b positive dendritic cells (CD11b^+ DCs), and CD11b negative dendritic cells (CD11b^− DCs). Among the mouse-derived dendritic cells, pDCs is a group of CD11c positive and B220 positive cells; CD11b^+ DCs is a group of CD11c positive, B220 negative and CD11b positive cells among mouse-derived dendritic cells; CD11b^− DCs is a group of CD11c positive, B220 negative, and CD11b negative cells among mouse-derived dendritic cells.
Each of phages recovered by three panning operations was monocloned and amplified. 1×10^5 mouse-derived dendritic cells and 1.6×10^10 pfu/mL of each phage clone were mixed, and then the phage was assayed for the binding to dendritic cells by flow cytometric analysis using an antibody against the phage.
About 60 phage clones obtained were subjected to flow cytometric analysis as described above. As a result, 37 clones shown in Table 1 were identified as clones capable of binding to dendritic cells. […]

[3] = tested on: NeutrAvidin-specific antibody; assay: NeutrAvidin-specific antibody titer in sera of mice given biotinylated peptide/NeutrAvidin complex, ELISA (Test Example 12); type: in vivo, mouse; settings: 5 μg as NeutrAvidin, base of tail Day 0 and Day 10, serum Day 17, IgG
Text: A biotinylated peptide was synthesized by linking the N-terminus of each of FL4 identified in Test Example 1, a peptide Mut 1 (amino acid sequence: ASYKAIR (SEQ ID NO: 2)) derived from FL4 of which the 1st amino acid residue was substituted by an alanine residue, a peptide Mut 2 (amino acid sequence: VAYKAIR (SEQ ID NO: 3)) derived from FL4 of which the 2nd amino acid residue was substituted by an alanine residue, a peptide Mut 3 (amino acid sequence: VSAKAIR, SEQ ID NO: 43) derived from FL4 of which the 3rd amino acid residue was substituted by an alanine residue, and a peptide Mut 4 (amino acid sequence: VSYKAAR, SEQ ID NO: 44) derived from FL4 of which the […] amino acid residue was substituted by an alanine residue to biotin. Subsequently, a biotinylated peptide/NeutrAvidin complex was produced by mixing each of the obtained biotinylated peptides and NeutrAvidin.
50 μL of physiological saline containing 5 μg of the complex or NeutrAvidin in terms of NeutrAvidin amount was administered into the base of the tail of each 7-week old C57BL/6 mouse on Day 0 and Day 10, and blood was collected on Day 17. As a control, a test was also carried out in the case where only physiological saline was administered in the same manner Meanwhile, in these tests, five mice in each group were used.
Sera were obtained from the blood collected on Day 17 and NeutrAvidin-specific antibody titer (IgG) in the sera was measured by ELISA. In FIG. 18, “NA” refers to the case of administration of NeutrAvidin, and “NA-FL4” refers to the case of administration of the biotinylated FL4/NeutrAvidin complex. Other peptides are shown in the same display format. Further, in FIG. 18, “cont” refers to the case where physiological saline was administered.

[4] = tested on: CD4^+ T cells contained in splenocytes; assay: Binding of phage clones to CD4+ T cells contained in splenocytes, flow cytometry (Test Example 6); type: cell-based, mouse; settings: phage clone 1.6×10^10 pfu/mL, 1×10^5 splenocytes
Procedure: (§1) Specifically, 1×10^5 splenocytes collected from mice and 1.6×10^10 pfu/mL of each phage clone were mixed, and the biotinylated antibody to the phage was added. Further, streptavidin modified with a fluorescent dye was added, and the binding of the phage to splenocytes was evaluated by flow cytometric analysis.

[5] = tested on: dendritic cells contained in splenocytes; assay: Binding of phage clones to dendritic cells contained in splenocytes, flow cytometry (Test Example 6); type: cell-based, mouse; settings: phage clone 1.6×10^10 pfu/mL, 1×10^5 splenocytes
Procedure: as §1

dendritic cells = settings: Non-Patent Document 2; cited from earlier work

Chain of Clec9a (Q8BRU4 106-238 limits assumed): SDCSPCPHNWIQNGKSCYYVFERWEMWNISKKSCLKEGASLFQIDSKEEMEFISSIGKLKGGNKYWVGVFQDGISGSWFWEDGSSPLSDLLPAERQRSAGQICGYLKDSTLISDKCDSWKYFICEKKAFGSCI

WPRFHSSVFHTH (WH peptide)
binding to Clec9a expressed on dendritic cells (Clec9a): can selectively bind to Clec9a

VSYKAIR (Amino acid sequence of motif sequence) [FL4, also tested as biotinylated complex]
binding ability of biotinylated peptide/streptavidin complex to dendritic cells [1]: equivalent to that of the peptide consisting of the amino acid sequence of FL8 | binding of phage clone to dendritic cells [2]: bound to all dendritic cells; also recorded: binding to bone marrow-derived dendritic cells was confirmed | NeutrAvidin-specific antibody production [3]: excellent production ability | binding of phage clone to CD4+ T cells contained in splenocytes [4]: also bound to CD4^+ T cells contained in splenocytes | binding of phage clone to dendritic cells contained in splenocytes [5]: bind to all dendritic cells contained in splenocytes; also recorded: equivalent to that of FL8

NWYLPWLGTNDW (NW peptide)
binding ability to dendritic cells (dendritic cells): high binding ability to dendritic cells
